According to ChEMBL document CHEMBL1201862, “PubChem BioAssay data set” (2004):
Calls of active or inactive are those of the source.

Key:
[1] = Late stage counterscreen results from the probe development effort to identify activators of signal transducer and activator of transcription 1 (STAT1): luminescence-based cell-based dose response assay to identify cytotoxic compounds.; format: functional
Fatty acid synthase [2] = target: T1, Fatty acid synthase (Homo sapiens, UniProt P49327); assay: inhibition of human FAS-TE enzyme activity – biochemical, endpoint fluorescence intensity, uHTS hits, dose response (AID 624327); format: functional;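 also: fluorescence from hydrolysis of an O-methyl fluorescein acyl ester substrate by the enzyme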
T1 sequence (P49327 whole entry): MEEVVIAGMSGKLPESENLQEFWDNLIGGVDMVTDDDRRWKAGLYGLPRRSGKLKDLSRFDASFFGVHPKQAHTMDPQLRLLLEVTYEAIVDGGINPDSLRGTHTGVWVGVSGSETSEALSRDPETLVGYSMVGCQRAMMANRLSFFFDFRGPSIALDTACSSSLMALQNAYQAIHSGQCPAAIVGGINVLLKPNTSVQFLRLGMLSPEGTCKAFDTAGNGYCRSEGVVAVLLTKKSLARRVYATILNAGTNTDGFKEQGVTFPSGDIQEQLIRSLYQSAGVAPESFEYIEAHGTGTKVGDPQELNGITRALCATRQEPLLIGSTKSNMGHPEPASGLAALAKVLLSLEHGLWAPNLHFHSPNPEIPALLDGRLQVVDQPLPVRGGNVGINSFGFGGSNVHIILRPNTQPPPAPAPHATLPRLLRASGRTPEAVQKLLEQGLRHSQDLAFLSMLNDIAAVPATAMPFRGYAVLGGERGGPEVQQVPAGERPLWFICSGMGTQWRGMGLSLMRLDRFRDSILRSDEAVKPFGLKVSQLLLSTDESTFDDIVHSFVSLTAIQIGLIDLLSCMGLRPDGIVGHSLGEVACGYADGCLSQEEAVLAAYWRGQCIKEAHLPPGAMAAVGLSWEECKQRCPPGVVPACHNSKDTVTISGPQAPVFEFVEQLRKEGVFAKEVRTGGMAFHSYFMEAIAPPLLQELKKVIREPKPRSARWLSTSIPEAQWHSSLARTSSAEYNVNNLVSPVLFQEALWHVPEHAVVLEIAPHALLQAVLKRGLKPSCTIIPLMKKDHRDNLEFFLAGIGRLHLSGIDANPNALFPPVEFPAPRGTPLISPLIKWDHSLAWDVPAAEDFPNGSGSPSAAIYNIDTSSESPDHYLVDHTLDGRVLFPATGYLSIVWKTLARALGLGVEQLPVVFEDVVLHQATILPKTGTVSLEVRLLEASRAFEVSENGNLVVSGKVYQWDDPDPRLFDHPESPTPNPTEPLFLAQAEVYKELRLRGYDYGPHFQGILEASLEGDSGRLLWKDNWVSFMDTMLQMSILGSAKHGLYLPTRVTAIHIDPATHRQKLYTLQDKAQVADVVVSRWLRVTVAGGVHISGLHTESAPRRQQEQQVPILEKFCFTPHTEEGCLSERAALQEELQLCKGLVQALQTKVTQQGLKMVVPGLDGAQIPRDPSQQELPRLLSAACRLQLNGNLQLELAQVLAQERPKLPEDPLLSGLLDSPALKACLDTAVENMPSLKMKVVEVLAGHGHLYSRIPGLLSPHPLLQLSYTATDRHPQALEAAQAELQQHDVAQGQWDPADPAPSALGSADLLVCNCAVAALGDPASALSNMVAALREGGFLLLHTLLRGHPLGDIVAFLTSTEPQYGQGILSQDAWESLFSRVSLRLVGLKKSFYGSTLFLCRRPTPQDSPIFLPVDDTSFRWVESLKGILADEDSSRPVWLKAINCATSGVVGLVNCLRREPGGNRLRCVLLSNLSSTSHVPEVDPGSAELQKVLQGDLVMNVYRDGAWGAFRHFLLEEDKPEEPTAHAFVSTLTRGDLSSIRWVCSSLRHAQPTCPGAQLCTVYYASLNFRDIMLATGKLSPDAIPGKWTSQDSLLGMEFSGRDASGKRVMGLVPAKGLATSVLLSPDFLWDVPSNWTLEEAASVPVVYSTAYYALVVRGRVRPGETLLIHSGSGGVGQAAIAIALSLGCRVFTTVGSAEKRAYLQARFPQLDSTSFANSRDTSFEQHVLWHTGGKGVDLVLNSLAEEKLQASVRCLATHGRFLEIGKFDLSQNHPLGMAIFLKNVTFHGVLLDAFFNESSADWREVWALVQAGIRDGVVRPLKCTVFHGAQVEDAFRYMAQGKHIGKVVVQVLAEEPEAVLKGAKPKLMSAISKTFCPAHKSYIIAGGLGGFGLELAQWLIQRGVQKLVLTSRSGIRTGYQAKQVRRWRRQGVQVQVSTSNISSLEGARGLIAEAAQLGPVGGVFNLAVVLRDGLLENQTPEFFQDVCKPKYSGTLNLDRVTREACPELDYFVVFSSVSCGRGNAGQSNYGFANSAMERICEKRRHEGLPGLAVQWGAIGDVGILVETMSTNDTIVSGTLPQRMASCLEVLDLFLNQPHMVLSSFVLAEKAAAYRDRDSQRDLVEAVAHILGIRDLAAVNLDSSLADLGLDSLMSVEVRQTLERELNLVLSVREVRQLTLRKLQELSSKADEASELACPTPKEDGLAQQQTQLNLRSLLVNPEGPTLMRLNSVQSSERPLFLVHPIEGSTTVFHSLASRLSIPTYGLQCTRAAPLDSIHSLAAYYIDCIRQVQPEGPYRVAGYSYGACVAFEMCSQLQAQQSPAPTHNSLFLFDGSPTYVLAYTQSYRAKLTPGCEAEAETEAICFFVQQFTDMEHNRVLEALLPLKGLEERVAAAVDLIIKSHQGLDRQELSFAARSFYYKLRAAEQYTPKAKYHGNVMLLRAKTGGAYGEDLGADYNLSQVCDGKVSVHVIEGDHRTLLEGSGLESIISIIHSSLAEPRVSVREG

Fatty acid synthase [3] = target: T1, Fatty acid synthase; assay: inhibition of human FAS-TE enzyme activity – biochemical, kinetic fluorescence intensity, dose response (AID 624326); format: functional;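 also: rate of fluorescence rise from hydrolysis of a fluorogenic O-methyl fluorescein ester substrate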
Estrogen receptor = target: T2, Estrogen receptor (Homo sapiens, UniProt P03372);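 also: potency for inhibiting coactivator peptide recruitment to the receptor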
T2 sequence (P03372 whole entry): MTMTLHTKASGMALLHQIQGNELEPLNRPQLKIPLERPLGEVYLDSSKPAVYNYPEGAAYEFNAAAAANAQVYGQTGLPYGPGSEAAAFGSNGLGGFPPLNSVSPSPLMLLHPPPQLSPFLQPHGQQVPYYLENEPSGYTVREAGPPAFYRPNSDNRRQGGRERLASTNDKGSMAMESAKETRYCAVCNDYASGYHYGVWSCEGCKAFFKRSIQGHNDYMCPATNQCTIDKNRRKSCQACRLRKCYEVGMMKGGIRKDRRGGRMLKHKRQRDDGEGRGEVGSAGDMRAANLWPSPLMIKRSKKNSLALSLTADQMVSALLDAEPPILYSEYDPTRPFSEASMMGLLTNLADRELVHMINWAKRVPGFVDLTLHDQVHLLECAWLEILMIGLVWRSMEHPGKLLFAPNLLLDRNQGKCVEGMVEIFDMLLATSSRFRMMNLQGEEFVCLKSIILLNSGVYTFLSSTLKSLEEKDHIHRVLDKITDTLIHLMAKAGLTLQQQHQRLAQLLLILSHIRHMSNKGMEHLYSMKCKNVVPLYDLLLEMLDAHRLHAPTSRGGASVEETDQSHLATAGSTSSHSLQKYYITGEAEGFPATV

[4] = Luminescent dose response cell-based high throughput screening assay for inhibitors of the Janus kinase 2 mutant JAK2V617F. [Related pubchem assays: 1446 (Primary screen.), 1521 (Confirmation assay.), 1486 (Counter screen.)]; format: functional
[5] = target: T3, Replicative DNA helicase DnaB (Mycobacterium tuberculosis, UniProt P9WMR3); assay: DnaB intein splicing inhibitors, dose response, biochemical, cell-free fluorescence (AID 449749); format: functional
T3 sequence (P9WMR3 whole entry): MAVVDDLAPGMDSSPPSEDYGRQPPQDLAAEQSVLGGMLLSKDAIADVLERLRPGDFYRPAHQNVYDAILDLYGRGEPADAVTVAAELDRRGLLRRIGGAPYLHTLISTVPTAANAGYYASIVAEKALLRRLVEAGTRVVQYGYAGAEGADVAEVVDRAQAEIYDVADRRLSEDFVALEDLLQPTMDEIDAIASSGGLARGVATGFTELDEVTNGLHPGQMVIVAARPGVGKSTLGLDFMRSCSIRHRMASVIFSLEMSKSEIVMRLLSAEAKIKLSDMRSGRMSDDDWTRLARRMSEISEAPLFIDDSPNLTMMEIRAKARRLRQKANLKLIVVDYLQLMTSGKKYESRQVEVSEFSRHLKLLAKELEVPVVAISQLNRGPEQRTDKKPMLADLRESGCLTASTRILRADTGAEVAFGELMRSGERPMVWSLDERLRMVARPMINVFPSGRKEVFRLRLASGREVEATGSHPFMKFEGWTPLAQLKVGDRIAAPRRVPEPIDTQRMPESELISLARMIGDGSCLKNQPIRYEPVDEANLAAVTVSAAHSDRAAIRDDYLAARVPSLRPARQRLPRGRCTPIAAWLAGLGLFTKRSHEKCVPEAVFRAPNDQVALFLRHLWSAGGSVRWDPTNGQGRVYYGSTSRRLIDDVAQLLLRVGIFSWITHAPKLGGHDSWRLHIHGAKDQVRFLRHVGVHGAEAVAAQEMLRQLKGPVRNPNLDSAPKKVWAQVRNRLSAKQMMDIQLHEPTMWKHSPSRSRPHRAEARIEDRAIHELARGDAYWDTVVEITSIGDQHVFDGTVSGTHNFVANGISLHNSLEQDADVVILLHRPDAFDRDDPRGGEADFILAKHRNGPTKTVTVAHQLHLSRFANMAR

Protein RecA = target: T4, Protein RecA (Mycobacterium tuberculosis, UniProt P9WHJ3); assay: Fluorescence Cell-Free Homogeneous Dose Retest to Identify Inhibitors of RecA-Intein Splicing Activity. [Related pubchem assays (depositor defined):AID2097, AID2223, AID489010, AID492950]; format: functional
T4 sequence (P9WHJ3 whole entry): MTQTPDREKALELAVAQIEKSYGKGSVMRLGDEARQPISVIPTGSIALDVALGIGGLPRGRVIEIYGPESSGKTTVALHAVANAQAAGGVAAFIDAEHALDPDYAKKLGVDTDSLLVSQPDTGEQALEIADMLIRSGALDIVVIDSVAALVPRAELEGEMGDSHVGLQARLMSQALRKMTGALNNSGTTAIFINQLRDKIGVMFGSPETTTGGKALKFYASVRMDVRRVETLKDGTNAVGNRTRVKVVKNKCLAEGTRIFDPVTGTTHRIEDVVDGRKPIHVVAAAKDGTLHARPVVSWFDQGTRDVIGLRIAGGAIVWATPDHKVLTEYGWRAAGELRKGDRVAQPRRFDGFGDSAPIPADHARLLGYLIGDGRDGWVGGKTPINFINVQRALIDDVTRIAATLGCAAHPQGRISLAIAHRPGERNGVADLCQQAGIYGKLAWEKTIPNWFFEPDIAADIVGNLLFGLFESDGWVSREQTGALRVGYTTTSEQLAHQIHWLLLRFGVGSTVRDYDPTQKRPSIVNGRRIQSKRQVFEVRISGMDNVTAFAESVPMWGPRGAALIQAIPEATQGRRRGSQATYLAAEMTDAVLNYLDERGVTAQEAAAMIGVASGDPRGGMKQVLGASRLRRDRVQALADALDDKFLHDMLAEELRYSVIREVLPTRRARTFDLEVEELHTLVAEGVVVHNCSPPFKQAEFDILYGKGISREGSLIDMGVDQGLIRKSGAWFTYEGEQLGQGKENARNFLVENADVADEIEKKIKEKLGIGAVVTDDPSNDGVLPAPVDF

Paired box protein Pax-8 = Paired box protein Pax-8 (Homo sapiens, UniProt Q06710); assay: PAX8 transcriptional activity inhibition in RMG-I – RMG-I cells, luciferase, cherry-pick, dose response (AID 687027); format: functional, cell-based;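 also: luciferase reporter driven by Pax8 target thyroperoxidase promoter measured by SteadyGlo luminescence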
Paired box protein Pax-8, sequence (Q06710 whole entry): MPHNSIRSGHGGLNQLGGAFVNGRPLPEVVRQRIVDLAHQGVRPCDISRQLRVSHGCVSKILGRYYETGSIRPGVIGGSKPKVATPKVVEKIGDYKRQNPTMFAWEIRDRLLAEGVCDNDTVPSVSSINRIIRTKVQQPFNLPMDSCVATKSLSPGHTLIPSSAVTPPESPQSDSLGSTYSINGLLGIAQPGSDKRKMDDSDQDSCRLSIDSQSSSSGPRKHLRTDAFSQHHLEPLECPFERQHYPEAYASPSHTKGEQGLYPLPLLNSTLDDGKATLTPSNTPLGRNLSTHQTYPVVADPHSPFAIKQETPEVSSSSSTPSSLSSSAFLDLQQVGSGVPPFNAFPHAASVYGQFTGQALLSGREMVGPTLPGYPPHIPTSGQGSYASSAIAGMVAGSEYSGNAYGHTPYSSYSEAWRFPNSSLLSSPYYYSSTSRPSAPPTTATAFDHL

[6] = general cell-killing toxicity readout – plate reader, dry powder samples, cytotoxicity control for PAX8 inhibitor project, dose response (AID 743021); format: functional, cell-based
BJ [7] = assay: BJ-TERT fibroblast viability loss – cell-based, RAS-independent, luminescence, dose response (AID 1933); format: functional; settings: Homo sapiens
[8] = target: T5, Heat shock factor protein 1 (Mus musculus, UniProt P38532); assay: decrease of HSF1-responsive luciferase luminescence – cell-based, NIH3T3, dose retest, confirmation (AID 2382); format: functional;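 also: NIH3T3 fibroblasts with HSF1-driven luciferase reporter stressed by proteasome inhibitor MG132; luminescence from HSF1-driven luciferase expression after 8 hours of MG132 stress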
T5 sequence (P38532 whole entry): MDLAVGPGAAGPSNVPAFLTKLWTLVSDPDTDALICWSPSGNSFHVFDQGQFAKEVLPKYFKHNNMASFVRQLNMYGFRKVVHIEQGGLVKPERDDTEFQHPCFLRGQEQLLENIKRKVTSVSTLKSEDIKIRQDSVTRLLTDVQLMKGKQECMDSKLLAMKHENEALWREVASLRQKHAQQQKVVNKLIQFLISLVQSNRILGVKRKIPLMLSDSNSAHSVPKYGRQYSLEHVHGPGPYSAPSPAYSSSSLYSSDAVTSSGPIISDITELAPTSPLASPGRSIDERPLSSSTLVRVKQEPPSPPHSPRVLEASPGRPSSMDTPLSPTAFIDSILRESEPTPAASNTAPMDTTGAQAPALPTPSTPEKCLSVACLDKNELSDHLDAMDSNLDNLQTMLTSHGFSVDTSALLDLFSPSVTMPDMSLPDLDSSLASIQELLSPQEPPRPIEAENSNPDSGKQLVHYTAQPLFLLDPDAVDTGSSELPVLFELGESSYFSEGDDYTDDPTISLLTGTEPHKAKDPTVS

BJ [9] = assay: cells; format: functional, cell-based; settings: Homo sapiens
[10] = Trypanosoma cruzi growth suppression in host cells – NIH3T3 host cells, beta-gal luminescence, confirmation (AID 2044); format: functional, cell-based;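 also: intracellular parasites grown in NIH/3T3 mouse fibroblasts as host cells; luminescent beta-galactosidase reporter signal from transgenic T. cruzi replicating inside host cells; inhibitors lower the luminescence signal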
[11] = NIH3T3 cell viability loss – ATP luminescence, mouse fibroblasts, counter-screen, dose response (AID 2010); format: functional, cell-based;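 also: cells exposed to compound for about 90 hours before reading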
BJ [12] = assay: BJ-TERT-LT-ST fibroblast viability loss – cell-based, RAS-independent, luminescence, dose response (AID 1935); format: functional; settings: Homo sapiens;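 also: BJ fibroblasts immortalized with TERT plus LT and ST oncogenes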
[13] = DRD fibroblast viability loss – cell-based, non-viral oncogenic, luminescence, dose response (AID 1934); format: functional; settings: Homo sapiens

CC(=O)NC(=S)Nc1sc2c(c1C#N)CCCCC2
IC50 [1]: > 55.7 µM (not active) | IC50 (Fatty acid synthase [2]): 12.3 µM (active) | IC50 (Fatty acid synthase [3]): 13.6 µM (active)

COc1ccc2[nH]c3c(c2c1)CCn1c-3nc2ccccc2c1=O
IC50 (Estrogen receptor): 17.2 µM (active) | IC50 [1]: > 55.7 µM (not active)

CCCCCCN(C(=O)CCl)c1ccccc1
IC50 [4]: 1.19 µM (active) | AC50 [5]: 7.25 µM (active) | EC50 (Protein RecA): 4.45 µM (inconclusive) | AC50 (Paired box protein Pax-8): 6.26 µM (active) | AC50 [6]: 7.01 µM (active)

Cc1cccc(N(Cc2ccccc2)C(=O)CCl)c1
IC50 [4]: 0.649 µM (active) | EC50 (BJ [7]): 356 nM (inconclusive) | EC50 [8]: 2.91 µM (active) | EC50 (BJ [9]): 3.61 µM (active) | EC50 [10]: 352 nM (active) | EC50 [11]: 2.39 µM (active) | EC50 (BJ [12]): > 150 µM (inconclusive) | EC50 [13]: 2.71 µM (inconclusive) | AC50 [5]: 7.84 µM (active) | EC50 (Protein RecA): 0.536 µM (active) | AC50 (Paired box protein Pax-8): 3.46 µM (active) | AC50 [6]: 4.85 µM (active)
